Experimental data taken from article PMC4232510, “Identification of Functionally Important Residues of the Rat P2X4 Receptor by Alanine Scanning Mutagenesis of the Dorsal Fin and Left Flipper Domains” (PLoS ONE, 2014).

Columns and labels:
P2X3R M200C = test system: P2X3R M200C; set-up: method as in PMID 24989924; conditions: cited from earlier work
P2X3R T196A = test system: P2X3R T196A; set-up: method as in PMID 16226373; key: n.f.: non-functional mutants; ↑: mutant with significant increased EC50 in comparison to WT (values represent fold increase); ≈: close to WT receptor; D: affected time-constant of the desensitizing current response; conditions: cited from earlier work
P2X2R N288A = test system: P2X2R N288A; set-up: method as in PMID 10940304; conditions: cited from earlier work
P2X3R D266A = test system: P2X3R D266A; set-up: method as in PMID 15475563; key: n.f.: non-functional mutants; ↑: mutant with significant increased EC50 in comparison to WT (values represent fold increase); ≈: close to WT receptor; D: affected time-constant of the desensitizing current response; conditions: cited from earlier work
P2X2R N202A = test system: P2X2R N202A; set-up: method as in PMID 10940304; key: n.f.: non-functional mutants; ↑: mutant with significant increased EC50 in comparison to WT (values represent fold increase); ≈: close to WT receptor; D: affected time-constant of the desensitizing current response; conditions: cited from earlier work
rP2X4R N204A mutant = target: T1, rP2X4R N204A mutant (Rattus norvegicus, UniProt P51577, N204A); assay type: cell-based
T1 construct: expressed in transfected cells; host or cells: HEK293T
T1 sequence (P51577 whole entry N204A): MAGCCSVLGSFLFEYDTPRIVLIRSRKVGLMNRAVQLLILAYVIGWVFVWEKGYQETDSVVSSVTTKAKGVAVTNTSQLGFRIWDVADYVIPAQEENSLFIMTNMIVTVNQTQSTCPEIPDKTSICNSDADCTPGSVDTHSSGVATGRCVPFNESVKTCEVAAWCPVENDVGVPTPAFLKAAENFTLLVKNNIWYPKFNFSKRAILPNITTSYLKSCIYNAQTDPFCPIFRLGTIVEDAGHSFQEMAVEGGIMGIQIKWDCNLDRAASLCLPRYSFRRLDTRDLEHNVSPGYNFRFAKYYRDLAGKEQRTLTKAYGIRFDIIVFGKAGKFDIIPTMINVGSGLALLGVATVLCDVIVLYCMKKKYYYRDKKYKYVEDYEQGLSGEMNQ
Experimental: To express the recombinant channels, we used human embryonic kidney (HEK) 293T cells (American Type Culture Collection, Rockville, MD, USA) grown in Dulbecco modified Eagle’s medium (Thermo Fisher Scientific, Waltham, MA) supplemented with 10% fetal bovine serum (Sigma-Aldrich, St Louis, MO), 50 U/ml penicillin and 50 µg/ml streptomycin (both Thermo Fisher Scientific, Waltham, MA) in a humidified 5% CO2 and 95% air at 37°C. Cells were cultured in 75 cm^2 plastic culture flasks (NUNC, Rochester, NY) for 36–72 hours until reaching 80–95% confluence. Before the day of transfection, the cells were plated on 35 mm culture dishes (Sarstedt, Newton, NC) and incubated at 37°C for at least 24 h. […] Transfected cells were identified by the fluorescence signal of EGFP using the Olympus IX71 inverted research microscope with fluorescence illuminators (Model IX71; Olympus, Melville, NY). […]
ATP-induced currents were recorded from whole cells clamped to −60 mV using an Axopatch 200B patch-clamp amplifier (Axon Instruments, Union City, CA). […] Potency of ATP was measured based on the activation of naïve (not previously stimulated) receptors using a short (2–5 s) application of various concentrations of ATP. […] One or two responses were recorded from one cell, if not otherwise stated, and responses from different cells were pooled. […]

P2X3R S267A = test system: P2X3R S267A; set-up: method as in PMID 16120774; key: n.f.: non-functional mutants; ↑: mutant with significant increased EC50 in comparison to WT (values represent fold increase); ≈: close to WT receptor; D: affected time-constant of the desensitizing current response; conditions: cited from earlier work
P2X3R S275A = test system: P2X3R S275A; set-up: method as in PMID 21879712; key: n.f.: non-functional mutants; ↑: mutant with significant increased EC50 in comparison to WT (values represent fold increase); ≈: close to WT receptor; D: affected time-constant of the desensitizing current response; conditions: cited from earlier work
P2X4R D280A = test system: P2X4R D280A; set-up: method as in PMID 17663752, PMID 15632318; conditions: cited from earlier work
rP2X4R N293A mutant = target: T2, rP2X4R N293A mutant (Rattus norvegicus, UniProt P51577, N293A); assay: whole-cell patch clamp, HEK293T cells expressing mutant; assay type: cell-based
T2 construct: expressed in transfected cells; host or cells: HEK293T
T2 sequence (P51577 whole entry N293A): as the sequence (P51577 whole entry N204A) above, with A204N, N293A counted along it

rP2X4R R203A mutant = target: T3, rP2X4R R203A mutant (Rattus norvegicus, UniProt P51577, R203A); assay: as above; assay type: cell-based
T3 construct: expressed in transfected cells; host or cells: HEK293T
T3 sequence (P51577 whole entry R203A): as the sequence (P51577 whole entry N204A) above, with R203A, A204N counted along it

[1] = decay after removal of 1 or 3 µM ATP, 3 µM IVM

## Nc1ncnc2c1ncn2[C@@H]1O[C@H](COP(=O)(O)OP(=O)(O)OP(=O)(O)O)[C@@H](O)[C@H]1O [ATP]
P2X3R M200C
  fold increase of EC50 for ATP in comparison to WT: M200C:↑8x[58]
P2X3R T196A
  change in EC50 for ATP: T196A: ≈[54]
P2X2R N288A
  fold increase of EC50 for ATP in comparison to WT: N288A: ↑>100x[6]
P2X3R D266A
  change in desensitization: D266A: D[53]
P2X2R N202A
  change in EC50 for ATP: N202A: n.f.[6]
rP2X4R N204A mutant; ATP after 3 µM IVM 4-6 min
  Imax+IVM: 2.5 ± 0.4 nA
rP2X4R N204A mutant; [1]
  τoff +IVM: 5.2 ± 0.6 s
P2X3R S267A
  change in EC50 for ATP: S267A: ≈[59]
P2X3R S275A
  change in desensitization: S275A: D[55]
P2X4R D280A
  fold increase of EC50 for ATP in comparison to WT: D280A ↑>100x[10], [52]
rP2X4R N293A mutant; ATP after 3 µM IVM 4-6 min
  Imax+IVM: 2.0 ±0.5 nA
rP2X4R N293A mutant; [1]
  τoff +IVM: 2.8 ± 0.2 s
rP2X4R R203A mutant; ATP after 3 µM IVM 4-6 min
  Imax+IVM: 2.9 ± 0.6 nA
rP2X4R R203A mutant; [1]
  τoff +IVM: 4.6 ± 0.3 s
